Results published in ChEMBL document CHEMBL5120787, “Selaginellin Inhibits Melanogenesis via the MAPK Signaling Pathway” (J Nat Prod, 2022).
Calls of active or inactive are those of the source. No cut-off for these calls is given here.

Tests used:
Mushroom tyrosinase = Mushroom tyrosinase (Agaricus bisporus, UniProt O42713+Q00024+C7FF04+C7FF05); assay: Inhibition of mushroom tyrosinase using L-DOPA as substrate preincubated with substrate for 10 mins followed by addition of enzyme and measured for 10 mins
Fibroblast [1] = assay: Cytotoxicity against human Fibroblast assessed as reduction in cell viability upto 10 uM measured after 48 to 72 hrs by MTT assay; format: toxicity, cell-based; conditions: time 48-72 hrs
Melan-a [2] = assay: Anti-melanogenic activity against mouse Melan-a cells assessed as decrease in alpha-MSH-induced Tyr activity at 0.01 to 10 uM incubated for 48 hrs; format: functional, cell-based; conditions: dose 0.01-10 µM
B16-F10 [3] = assay: Anti-melanogenic activity against mouse B16-F10 cells at 50 nM; format: functional, cell-based
HaCaT [4] = assay: Anti-melanogenic activity against UVB-induced human HaCaT cells assessed as inhibition of LIF mRNA expression at 10 uM incubated for 24 hrs by qRT-PCR analysis; format: functional, cell-based
B16-F10 [5] = assay: Anti-melanogenic activity against mouse B16-F10 cells assessed as decrease in […] at 25 to 100 nM incubated for 48 hrs by RBFP based fluorescence microscope analysis; format: functional, cell-based; conditions: dose 25-100 nM
B16-F10 [6] = assay: Anti-melanogenic activity against mouse B16-F10 cells assessed as decrease in melanin content at 25 to 100 nM incubated for 48 hrs by Fontana-Masson staining based inverted microscopic analysis; format: functional, cell-based; conditions: dose 25-100 nM
B16-F10 [7] = assay: Inhibition of MAPK signaling pathway in mouse B16-F10 cells assessed as decrease in phosphorylated JNK at 25 to 100 nM for 48 hrs by Western blot analysis; format: cell-based; conditions: dose 25-100 nM
HaCaT [8] = assay: Cytotoxicity against human HaCaT cells assessed as reduction in cell viability upto 10 uM measured after 48 to 72 hrs by MTT assay; format: toxicity, cell-based; conditions: time 48-72 hrs
B16-F10 [9] = assay: Anti-melanogenic activity against mouse B16-F10 cells assessed as decrease in TRP2 protein level at 25 to 100 nM measured after 48 hrs by Western blot analysis; format: functional, cell-based; conditions: dose 25-100 nM
B16-F10 [10] = assay: Anti-melanogenic activity against mouse B16-F10 cells assessed as decrease in TRP1 protein level at 25 to 100 nM measured after 48 hrs by Western blot analysis; format: functional, cell-based; conditions: dose 25-100 nM
Fibroblast [11] = assay: Anti-melanogenic activity against UVB-induced human fibroblast cells assessed as inhibition of LIF mRNA expression at 10 uM incubated for 24 hrs by qRT-PCR analysis; format: functional, cell-based
B16-F10 [12] = assay: Inhibition of MAPK signaling pathway in mouse B16-F10 cells assessed as decrease in phosphorylated ERK at 25 to 100 nM for 48 hrs by Western blot analysis; format: cell-based; conditions: dose 25-100 nM
Melan-a [13] = assay: Anti-melanogenic activity against mouse Melan-a cells assessed as decrease in alpha-MSH-induced melanin content at 0.01 to 10 uM incubated for 48 hrs by Fontana-Masson staining based inverted microscopic analysis; format: functional, cell-based; conditions: dose 0.01-10 µM
HaCaT [14] = assay: Anti-melanogenic activity against UVB-induced human HaCaT cells assessed as decrease in SCF protein level at 10 uM incubated for 24 hrs by Western blot analysis; format: functional, cell-based
Fibroblast [15] = assay: Anti-melanogenic activity against UVB-induced human fibroblast cells assessed as decrease in SCF protein level at 10 uM incubated for 24 hrs by Western blot analysis; format: functional, cell-based
MNT-1 [16] = assay: Cytotoxicity against human MNT-1 cells assessed as reduction in cell viability upto 10 uM measured after 48 to 72 hrs by MTT assay; format: toxicity, cell-based; conditions: mnt-1, 10 µM, time 48-72 hrs
B16-F10 [17] = assay: Anti-melanogenic activity against mouse B16-F10 cells assessed as decrease in RAB27A protein level at 25 to 100 nM measured after 48 hrs by Western blot analysis; format: functional, cell-based; conditions: dose 25-100 nM
MNT-1 [18] = assay: Anti-melanogenic activity against UVB-induced human MNT-1 cells cocultured with 24 hrs human HaCaT cells supernatant assessed as decrease in melanin content at 10 uM incubated for 48 hrs by Fontana-Masson staining based microscopic analysis; format: functional, cell-based; conditions: time 72.0 hrs
HaCaT [19] = assay: Anti-melanogenic activity against UVB-induced human HaCaT cells assessed as inhibition of SCF mRNA expression at 10 uM incubated for 24 hrs by qRT-PCR analysis; format: functional, cell-based
MNT-1 [20] = assay: Anti-melanogenic activity against human MNT-1 cells assessed as decrease in melanin content at 10 uM incubated for 48 hrs by Fontana-Masson staining based microscopic analysis; format: functional, cell-based
HaCaT [21] = assay: Anti-melanogenic activity against UVB-induced human HaCaT cells assessed as decrease in LIF protein level at 10 uM incubated for 24 hrs by Western blot analysis; format: functional, cell-based
Fibroblast [22] = assay: Anti-melanogenic activity against UVB-induced human fibroblast cells assessed as decrease in LIF protein level at 10 uM incubated for 24 hrs by Western blot analysis; format: functional, cell-based
Fibroblast [23] = assay: Anti-melanogenic activity against UVB-induced human fibroblast cells assessed as inhibition of SCF mRNA expression at 10 uM incubated for 24 hrs by qRT-PCR analysis; format: functional, cell-based
B16-F10 [24] = assay: Inhibition of MAPK signaling pathway in mouse B16-F10 cells assessed as decrease in phosphorylated p38 at 25 to 100 nM for 48 hrs by Western blot analysis; format: cell-based; conditions: dose 25-100 nM
B16-F10 [25] = assay: Anti-melanogenic activity against mouse B16-F10 cells assessed as decrease in MITF protein level at 25 to 100 nM measured after 48 hrs by Western blot analysis; format: functional, cell-based; conditions: dose 25-100 nM
MNT-1 [26] = assay: Anti-melanogenic activity against UVB-induced human MNT-1 cells cocultured with 24 hrs human fibroblast cells supernatant assessed as decrease in melanin content at 10 uM incubated for 48 hrs by Fontana-Masson staining based microscopic analysis; format: functional, cell-based; conditions: time 72.0 hrs
B16-F10 [27] = assay: Anti-melanogenic activity against mouse B16-F10 cells assessed as decrease in TYR protein level at 25 to 100 nM measured after 48 hrs by Western blot analysis; format: functional, cell-based; conditions: dose 25-100 nM
B16-F10 [28] = assay: Anti-melanogenic activity against mouse B16-F10 cells assessed as decrease in […] at 25 to 100 nM incubated for 48 hrs; format: functional, cell-based; conditions: dose 25-100 nM
Melan-a [29] = assay: Anti-melanogenic activity against mouse Melan-a cells assessed as alpha-MSH-induced decrease in Tyr activity at 0.01 to 10 uM incubated for 48 hrs by RBFP based fluorescence microscope analysis; format: functional, cell-based; conditions: dose 0.01-10 µM
B16-F10 [30] = assay: Cytotoxicity against mouse B16-F10 cells assessed as reduction in cell viability upto 10 uM measured after 48 to 72 hrs by MTT assay; format: toxicity, cell-based; conditions: b16-f10, 10 µM, time 48-72 hrs
[31] = Cytotoxicity against mouse Melan-a cells assessed as reduction in cell viability upto 10 uM measured after 48 to 72 hrs by MTT assay; format: toxicity, cell-based; conditions: time 48-72 hrs
B16-F10 [32] = assay: Anti-melanogenic activity against mouse B16-F10 cells at 200 nM; format: functional, cell-based
MNT-1 [33] = assay: Anti-melanogenic activity against human MNT-1 cells cocultured with 24 hrs compound pretreated human HaCaT cells supernatant assessed as inhibition of LIF protein expression at 20 uM and measured after 48 hrs by Western blot analysis; format: functional, cell-based; conditions: time 72.0 hrs
MNT-1 [34] = assay: Anti-melanogenic activity against human MNT-1 cells cocultured with 24 hrs compound pretreated human HaCaT cells supernatant assessed as inhibition of SCF protein expression at 20 uM and measured after 48 hrs by Western blot analysis; format: functional, cell-based; conditions: time 72.0 hrs
MNT-1 [35] = assay: Anti-melanogenic activity against human MNT-1 cells cocultured with 24 hrs compound pretreated human fibroblast cells supernatant assessed as decrease in melanin content at 20 uM and measured after 48 hrs by Fontana-Masson staining based microscopic analysis; format: functional, cell-based; conditions: time 72.0 hrs
MNT-1 [36] = assay: Anti-melanogenic activity against human MNT-1 cells cocultured with 24 hrs compound pretreated human HaCaT cells supernatant assessed as inhibition of LIF mRNA expression at 20 uM and measured after 48 hrs by qRT-PCR analysis; format: functional, cell-based; conditions: time 72.0 hrs
MNT-1 [37] = assay: Anti-melanogenic activity against human MNT-1 cells cocultured with 24 hrs compound pretreated human HaCaT cells supernatant assessed as decrease in melanin content at 20 uM and measured after 48 hrs by Fontana-Masson staining based microscopic analysis; format: functional, cell-based; conditions: time 72.0 hrs
MNT-1 [38] = assay: Anti-melanogenic activity against human MNT-1 cells cocultured with 24 hrs compound pretreated human fibroblast cells supernatant assessed as inhibition of LIF protein expression at 20 uM and measured after 48 hrs by Western blot analysis; format: functional, cell-based; conditions: time 72.0 hrs
MNT-1 [39] = assay: Anti-melanogenic activity against human MNT-1 cells cocultured with 24 hrs compound pretreated human HaCaT cells supernatant assessed as inhibition of SCF mRNA expression at 20 uM and measured after 48 hrs by qRT-PCR analysis; format: functional, cell-based; conditions: time 72.0 hrs
MNT-1 [40] = assay: Anti-melanogenic activity against human MNT-1 cells cocultured with 24 hrs compound pretreated human fibroblast cells supernatant assessed as inhibition of SCF mRNA expression at 20 uM and measured after 48 hrs by qRT-PCR analysis; format: functional, cell-based; conditions: time 72.0 hrs
MNT-1 [41] = assay: Anti-melanogenic activity against human MNT-1 cells cocultured with 24 hrs compound pretreated human fibroblast cells supernatant assessed as inhibition of LIF mRNA expression at 20 uM and measured after 48 hrs by qRT-PCR analysis; format: functional, cell-based; conditions: time 72.0 hrs
MNT-1 [42] = assay: Anti-melanogenic activity against human MNT-1 cells cocultured with 24 hrs compound pretreated human fibroblast cells supernatant assessed as inhibition of SCF protein expression at 20 uM and measured after 48 hrs by Western blot analysis; format: functional, cell-based; conditions: time 72.0 hrs
Danio rerio = species: Danio rerio; assay: Inhibition of melanogenesis in zebra fish embryos assessed as decrease in melanin granule density at 10 to 50 uM measured upto 6 days by inverted microscope analysis; format: functional; conditions: dose 10-50 µM, time <= 6.0 day

## O=C1C=CC(=C(c2ccc(O)cc2)c2c(-c3ccc(O)cc3)ccc(CO)c2C#Cc2ccc(O)cc2)C=C1
Mushroom tyrosinase
  IC50: 9.24 µM
Fibroblast [1]
  Activity: Non-Toxic
Melan-a [2]
  Activity: Active
B16-F10 [3]
  Activity: Active
HaCaT [4]
  Activity: Active
B16-F10 [5]
  Activity: Active
B16-F10 [6]
  Activity: Active
B16-F10 [7]
  inhibition: Active
HaCaT [8]
  Activity: Non-Toxic
B16-F10 [9]
  Activity: Active
B16-F10 [10]
  Activity: Active
Fibroblast [11]
  Activity: Active
B16-F10 [12]
  inhibition: Active
Melan-a [13]
  Activity: Active
HaCaT [14]
  Activity: Active
Fibroblast [15]
  Activity: Active
MNT-1 [16]
  Activity: Non-Toxic
B16-F10 [17]
  Activity: Active
MNT-1 [18]
  Activity: Active
HaCaT [19]
  Activity: Active
MNT-1 [20]
  Activity: Active
HaCaT [21]
  Activity: Active
Fibroblast [22]
  Activity: Active
Fibroblast [23]
  Activity: Active
B16-F10 [24]
  inhibition: Active
B16-F10 [25]
  Activity: Active
MNT-1 [26]
  Activity: Active
B16-F10 [27]
  Activity: Active
B16-F10 [28]
  Activity: Active
Melan-a [29]
  Activity: Active
B16-F10 [30]
  Activity: Non-Toxic
[31]
  Activity: Non-Toxic

## O=c1cc(CO)occ1O
B16-F10 [32]
  Activity: Active

## COc1ccc(-c2cc(=O)c3c(OC)c(OC)c(OC)c(OC)c3o2)cc1OC
MNT-1 [33]
  Activity: Active
MNT-1 [34]
  Activity: Active
MNT-1 [35]
  Activity: Active
MNT-1 [36]
  Activity: Active
MNT-1 [37]
  Activity: Active
MNT-1 [38]
  Activity: Active
MNT-1 [39]
  Activity: Active
MNT-1 [40]
  Activity: Active
MNT-1 [41]
  Activity: Active
MNT-1 [42]
  Activity: Active

## NC(=S)Nc1ccccc1
Danio rerio
  inhibition: Active
